Values of other authors as cited in patent US5196437A, “Method for treating hepatic diseases and regenerating liver tissue using FK 506 and related compounds” (Fujisawa Pharmaceutical Company, Ltd., priority 1990, dated 1993).

Columns and labels:
liver = conditions: literature (Starzl et al); cited from earlier work
liver tissue = conditions: literature; cited from earlier work

Compound	hepatotrophic properties (liver)	regeneration of liver tissue after partial hepatectomy (liver tissue)	metabolic effect on the liver (liver)
insulin	exhibit hepatotrophic effects similar to those of the present compounds	–	–
Cn1cnc([N+](=O)[O-])c1Sc1ncnc2nc[nH]c12 [Azathioprine]	–	depress the regeneration of liver tissue	–
glucagon	does not have the hepatotrophic properties	–	powerful metabolic effect on the liver
